The structures appear in SMILES notation. Where only a bound is given, the exact number is not on record here.

This is an account of results in publication PMC12655351, “Synthesis and Anticancer Activity Evaluation of New 5-((5-Nitrofuran-2-yl)allylidene)-2-thioxo-4-thiazolidinones” (Pharmaceuticals, 2025).

Data set [1] relates to caspase-3 in MDA-MB-231 cells. Description: caspase-3 ELISA. The class given is cell-based, human. As to conditions: MDA-MB-231, 10 μM (highest concentration), 24 h. On the procedure: To confirm the activity of the caspase pathway, an effector caspase-3 was assayed on MCF-7 and MDA-MB-231 cell lines after 24 h of treatment using the ELISA method. Novel 4-thiazolidinone derivatives were tested in concentrations of 1 and 5 μM for the MCF-7 cell line and 5 and 10 μM for the MDA-MB-231 cell line.
Using a SimpleStep ELISA kit (Abcam, Cambridge, UK), we determined the levels of cytochrome C and caspase-3 in cells’ lysates with 2b, 12b, and 14b (1 and 5 μM for the MCF-7 cell line and 5 and 10 μM for the MDA-MB-231) and doxorubicin in concentrations of 1 and 5 μM for both lines after 24 h incubation. Assays were performed according to the manufacturer’s protocols.

The test system of data set [2] is MDA-MB-231 cell line. Description: Annexin V-FITC/propidium iodide flow cytometry. Format: cell-based, human. As to conditions: 24 h. On the procedure:
Similarly to Figure 3, Figure 4 showcases the flow cytometric assessment of compounds effects on apoptosis induction on the MDA-MB-231 cell line after 24 h of incubation with tested structures. For this cell line, based on previous results, higher concentrations of tested compounds were chosen: 5 and 10 μM. […] At the same time, compound 12b showcased 7.3% of early and late apoptotic cells, 1.2% of necrotic cells in 5 μM concentration, and 13.8% and 22.3% in 10 μM concentration, consequently.
To conduct induction of apoptosis on MCF-7 and MDA-MB-231 cell lines, three compounds with the lowest IC50 values were selected (2b, 12b, 14b). The concentration of these compounds depended on the cell line. For MCF-7 cell line concentrations of 1 and 5 μM were used, while for MDA-MB-231 cell line concentrations were 5 and 10 μM. For both cell lines doxorubicin was used as a reference compound in 1 and 5 μM concentrations. This study was evaluated using a flow cytometer (BD FACSCanto II, Becton Dickinson Biosciences Systems, San Jose, CA, USA) and Annexin V binding Apoptosis Detection Kit II (BD Biosciences, San Diego, CA, USA). Cells were seeded in 6-well culture plates cultured in accordance with the previously described methodology. The medium was removed from wells and then cells were washed with PBS. A cell suspension was prepared in the binding buffer provided in the kit at a concentration of 1 × 10^6 cells/mL. A total of 100 µL of cell suspension was collected from each sample and transferred to the tubes. Afterwards, 5 µL of Annexin V-FITC and 4 µL of propidium iodide (PI) were added to each tube and then the tubes were incubated in the dark for 15 min at room temperature. After incubation, the suspension was supplemented to 300 µL with a binding buffer and immediately read in a BD FACSCanto II flow cytometer (Becton Dickinson Biosciences, San Jose, CA, USA), where 10,000 events per sample were measured. Results were analyzed using FACSDiva Software Version 6.1.3. (BD Biosciences Systems, San Jose, CA, USA).

Data set [3] deals with SF-539. Description: cells. As to conditions: Homo sapiens, SF-539, 48 h.
In data set [4] the test system is MDA-MB-231/ATCC. The data set can be described thus: cells. The settings on record: Homo sapiens, MDA-MB-231, 48 h; for GI50: MDA-MB-231/ATCC, 48 h; for CC50: read-out: LC50, MDA-MB-231/ATCC, 48 h.
The subject of data set [5] is mitochondrial membrane potential (ΔΨm) of MDA-MB-231 breast cancer cells. The data set can be described thus: JC-1 flow cytometry. The class given is cell-based, human. The settings on record: 24 h. On the procedure: (§1) This method involves marking cells with fully functional mitochondria with red fluorescence due to the accumulation of the dye in hyperpolarized mitochondrial membrane. In case of a damaged membrane, the dye decomposes into monomers, emitting green fluorescence. […] For MDA-MB-231 cells, the values were as follows: 4.25% for 5 μM and 20.95% for 10 μM concentration. The obtained results signify the compound’s capability to decrease mitochondrial potential on both cell lines at a higher concentration (Figure 6).
(§2) The mitochondrial membrane potential (ΔΨm) was analyzed by using the JC-1 MitoScreen kit (BD Biosciences, San Diego, CA, USA). The tested compounds and reference drug were used in 1 and 5 µM concentrations on the MCF-7 cell line and 5 and 10 µM on the MDA-MB-231 cell line. After 24 h of incubation with the tested compounds, the assay was performed as described in the literature. The assay was performed using a flow cytometer (BD FACSCanto II, Becton Dickinson Biosciences Systems, San Jose, CA, USA), and results were obtained using FACSDiva software (version 6.1.3, BD Biosciences Systems, San Jose, CA, USA).

In data set [6] the test system is mitochondrial membrane potential (ΔΨm) of MCF-7 breast cancer cells. The data set can be described thus: JC-1 flow cytometry. The class given is cell-based, human. As to conditions: 24 h. On the procedure: as §1, §2
The test system of data set [7] is SF-295. The settings on record: human, 48 h.
Data set [8] relates to SNB-75. As to conditions: human, 48 h.
For data set [9], the system named is MDA-MB-468. The settings on record: human, 48 h.
The test system of data set [10] is ACHN. The settings on record: human, 48 h.
Data set [11] has as its system SK-MEL-2. As to conditions: human, 48 h.
The test system of data set [12] is NCI-H322M. The settings on record: human, 48 h.
Data set [13] concerns NCI-H266. The settings on record: human, 48 h.
For data set [14], the system named is SNB-19. The settings on record: human, 48 h.
The subject of data set [15] is EKVX. The settings on record: human, 48 h.

In the case of `CC(C(=O)O)N1C(=O)/C(=C/C=C/c2ccc([N+](=O)[O-])o2)SC1=S` (stereo not drawn) [2b, 2-((Z)-5-((E)-3-(5-Nitrofuran-2-yl)allylidene)-4-oxo-2-thioxothiazolidin-3-yl)propanoic acid], in [1], the “change of caspase-3 concentration” value is recorded as “slight increase”. Further, in data set [2] (MDA-MB-231, 5 μM), the combined apoptotic cells was found to be 7.8% and the necrotic cells is reported as 6.6%. For the same molecule, in data set [2] (MDA-MB-231, 10 μM), the combined apoptotic cells stood at 7.5% and the necrotic cells was 44%.

On to `CC(C)C(C(=O)O)N1C(=O)/C(=C/C=C/c2ccc([N+](=O)[O-])o2)SC1=S` (stereo not drawn) [5b, 3-Methyl-2-((Z)-5-((E)-3-(5-nitrofuran-2-yl)allylidene)-4-oxo-2-thioxothiazolidin-3-yl)butanoic acid], for which the GI50 in [3] was 1.44 µM. Further, in [4], the concentration for 50% growth inhibition (GI50) worked out at 1.56 µM and the CC50 came to 5.9 µM.

`O=C(O)C(c1ccccc1)N1C(=O)/C(=C/C=C/c2ccc([N+](=O)[O-])o2)SC1=S` (stereo not drawn) [9b, 2-((Z)-5-((E)-3-(5-Nitrofuran-2-yl)allylidene)-4-oxo-2-thioxothiazolidin-3-yl)-2-phenylacetic acid]: it took 12 µM to inhibit growth in [3] by half (GI50). Besides, in data set [4], the GI50 was found to be 10.8 µM and the CC50 was found to be 54.2 µM.

Consider `O=C(O)CCN1C(=O)/C(=C/C=C/c2ccc([N+](=O)[O-])o2)SC1=S` [12b, 3-((Z)-5-((E)-3-(5-Nitrofuran-2-yl)allylidene)-4-oxo-2-thioxothiazolidin-3-yl)propanoic acid], for which the “change of caspase-3 concentration” value in [1] was “significant increase”. The molecule also registered a GI50 in data set [3] of 1.66 µM. Further, in data set [2] (MDA-MB-231, 5 μM), the combined apoptotic cells is 7.3% and the necrotic cells was 1.2%. Also, in data set [2] (MDA-MB-231, 10 μM), the combined apoptotic cells is given as 13.8% and the necrotic cells is recorded as 22.3%. For the same molecule, in data set [4], the GI50 was found to be 1.7 µM and the CC50 worked out at 6.15 µM.

Consider `CCCC(C(=O)O)N1C(=O)/C(=C/C=C/c2ccc([N+](=O)[O-])o2)SC1=S` (stereo not drawn) [4b, 2-((Z)-5-((E)-3-(5-Nitrofuran-2-yl)allylidene)-4-oxo-2-thioxothiazolidin-3-yl)pentanoic acid], for which the figures for the GI50 in data set [3] and in data set [4] were 2.12 µM and 2.21 µM, respectively. Besides, the CC50 in data set [4] amounted to 8.33 µM.

In data set [3], `CCCCC(C(=O)O)N1C(=O)/C(=C/C=C/c2ccc([N+](=O)[O-])o2)SC1=S` (stereo not drawn) [6b, 2-((Z)-5-((E)-3-(5-nitrofuran-2-yl)allylidene)-4-oxo-2-thioxothiazolidin-3-yl)hexanoic acid] came in with a GI50 of 1.89 µM. Besides, in data set [4], it took 2.27 µM to inhibit growth by half (GI50) and the CC50 came to 8.73 µM.

For the molecule `O=C(O)CCCCCN1C(=O)/C(=C/C=C/c2ccc([N+](=O)[O-])o2)SC1=S` [14b, 6-((Z)-5-((E)-3-(5-nitrofuran-2-yl)allylidene)-4-oxo-2-thioxothiazolidin-3-yl)hexanoic acid], the “Decreased Δψ (decrease in mitochondrial potential)” value came out at 4.25% in [5] (MDA-MB-231, 5 μM); 20.95% in data set [5] (MDA-MB-231, 10 μM); 8.75% in [6] (MCF-7, 1 μM); 20.25% in [6] (MCF-7, 5 μM). The CC50 in data set [7] amounted to 6.61 µM; in [8] it was 4.03 µM; in data set [9], 4.29 µM; in data set [10] it was 5 µM; in data set [11], 6.87 µM; in data set [12], 6.92 µM. Further, the CC50 in [13] was 96.3 µM; in data set [14] it was 6.67 µM; in [15], 7.52 µM. Moreover, the “change of caspase-3 concentration” value in data set [1] is given as “at least two times more”. In addition, the combined apoptotic cells in data set [2] (MDA-MB-231, 5 μM) is on record as 5.7%; in data set [2] (MDA-MB-231, 10 μM) it was 28.8%. Also, the necrotic cells was found to be 1.4% in [2] (MDA-MB-231, 5 μM) and 42.6% in data set [2] (MDA-MB-231, 10 μM).

Turning to `O=C(O)CCCN1C(=O)/C(=C/C=C/c2ccc([N+](=O)[O-])o2)SC1=S` [13b, 4-((Z)-5-((E)-3-(5-Nitrofuran-2-yl)allylidene)-4-oxo-2-thioxothiazolidin-3-yl)butanoic acid], the CC50 was 5.08 µM in data set [7]; 5.49 µM in data set [8]; 3.72 µM in data set [10]; 4.2 µM in data set [11]; 22.8 µM in data set [12]; more than 100 µM in data set [13]. The values for the CC50 in [14] and in data set [15] were 5.5 µM and 6.05 µM, respectively.
